Experimental data published in US10421765B2, “Tetrahydropyrido[4,3-d]pyrimidine inhibitors of ATR kinase” (Board of Regents, The University of Texas System, priority 2017, dated 2019).
Read-outs that look alike come from different tables or passages of the source.

Legend:
ATR/ATRIP complex = ATR/ATRIP complex (Homo sapiens (Human), UniProt Q13535); test: ATR/ATRIP enzymatic assay (Caliper-based); format: biochemical; conditions: FAM-labeled RAD17 peptide, ATP
Procedure: Human full-length FLAG-TEV-ATR and His6-ATRIP were co-expressed in HEK293 cells. The cell pellet (20 g) was harvested and lysed in 100 mL of lysis buffer (20 mM Tris-HCl pH 7.5 at room temperature, 137 mM NaCl, 10% glycerol, 1 mM DTT, 1% (v/v) Tween-20, 0.1% (v/v) NP-40, complete protease inhibitor cocktail tablets, phosphatase inhibitor cocktail tablets, 2 mM MgCl2, 0.2 mM EDTA, and 1 mM ATP). After sonication and centrifugation, the supernatant was incubated at 4° C. for 3 hours with 1 mL of anti-FLAG resin (Sigma catalog #A2220) that had been pre-equilibrated in buffer A (20 mM Tris-HCl pH 7.5 at room temperature, 137 mM NaCl, 10% glycerol, 1 mM DTT, 2 mM MgCl2, and 0.2 mM EDTA). The sample was loaded into a column, and then washed with buffer A three times. Protein was subsequently eluted with 2 ml of buffer B (buffer A+200 μg/ml 3×FLAG peptide).
The ability of new chemical matter to inhibit the ATR catalytic activity in this ATR/ATRIP complex was assessed using a Caliper-based assay. A 2x enzyme solution (i.e., 4 nM enzyme) was prepared using 1× Kinase Reaction Buffer (25 mM HEPES pH 8, 0.0055% Brij-35, 10 mM MnCl2, and 1 mM DTT). A 2x peptide solution was then prepared consisting of 10 uM FAM-labeled RAD17 peptide (GL Biochem, catalog #524315) in 1× Kinase Reaction Buffer supplemented with 2 μM ATP. 10 μL of the 2× enzyme solution was transferred to an assay plate containing 60 nL of test compound (from a 3× serial dilution) in 100% DMSO. Following a 30 minute incubation at 28° C., 10 μL of the 2× peptide solution was then transferred to the same assay plate. The reaction was allowed to incubate at 28° C. for 6 hours. After adding […] of stop buffer (100 mM HEPES pH 7.5, 0.015% Brij-35, 0.2% Coating-3 Reagent (PerkinElmer, catalog #PN760050), and 50 mM EDTA), data were collected on a Caliper instrument. Conversion values were converted to inhibition values via the following equation: % inhibition=(max−conversion)/(max−min)*100, whereby “max” corresponds to the DMSO control and “min” corresponds to the low control. IC50 values were calculated using the following equation in XLFit: Y=Bottom+(Top−Bottom)/1+(IC50/X)^HillSlope).

[1] = test system: ATR-driven phosphorylation of Chk1 kinase at Serine 345 in HT-29 colorectal adenocarcinoma cells; test: pCHK1 cellular assay (CHK1 p-Ser345 AlphaScreen SureFire); format: cell-based; conditions: 4-nitroquinoline N-oxide 12 uM, read-out: Cell IC50 (pCHK1 IC50 values)
Procedure: Inhibitors of ATR kinase are effective at inhibiting the ATR-driven phosphorylation of the downstream target Chk1 kinase at Serine 345, following the addition of 4-nitroquinoline N-oxide, a chemical used to induce DNA damage. Cellular IC50 for the inhibitors of ATR described herein were measured in HT-29 colorectal adenocarcinoma cells. HT-29 cells were routinely maintained in McCoy's 5A media (ATCC Catalog #30-2007) supplemented with 10% fetal bovine serum (Sigma Catalog #F2442) and 1× Penicillin-Streptomycin (Gibco Catalog #15140-122) using a humidified incubator (37° C., 5% CO2, and ambient O2).
In preparation for the CHK1 (p-Ser345) ALPHASCREEN® SUREFIRE® assay, cells were harvested and resuspended in McCoy's 5A media supplemented with 10% fetal bovine serum and 1× Penicillin-Streptomycin. Cells were seeded onto a 384-well black CELLSTAR® Tissue Culture Plate (VWR Catalog #89085-314) at a density of 13,000 cells/well in a volume of 40 uL. The microplate was incubated overnight (approximately 20 hours) at 37° C. with 5% CO2 and ambient O2. Stock solutions of the test compounds were prepared in 100% DMSO (Sigma, Catalog #D2650) and serially diluted 1:3 using 100% DMSO. Compounds were additionally diluted 1:33 in culture medium, and 10 ul/well were transferred to the tissue culture plate. Following the compound addition the microplate was incubated at 37° C. for 90 minutes. 10 uL of 4-nitroquinoline N-oxide (Sigma Aldrich Catalog #N8141-1G) diluted in media (final concentration 12 uM) were added to the tissue culture plate followed by a 120 minute incubation at 37° C. The cells were then washed with PBS and lysed using 10 uL/well SUREFIRE® Kit lysis buffer diluted to 1× in water (PerkinElmer Catalog #TGRCHK1S50K), with mixing on an orbital shaker at 500 rpm for 20 min at RT. Lysates were frozen at −20° C. overnight.
4 uL/well of lysate was then transferred from the tissue culture plate to a 384-well, white, low volume, PROXIPLATE™ (PerkinElmer Catalog #600828). 5 uL/well of the acceptor bead solution, prepared by diluting SUREFIRE® Kit activation buffer (PerkinElmer Catalog #TGRCHK1S50K) and ALPHASCREEN® Protein A acceptor beads (PerkinElmer Catalog #6760617R) in SUREFIRE® Kit reaction buffer (PerkinElmer Catalog #TGRCHK1S50K), were added to the lysates under subdued light and incubated at room temperature for 120 min. 2 uL/well of the donor bead solution, prepared by diluting ALPHASCREEN® Streptavidin donor beads (PerkinElmer Catalog #6760617R) in SUREFIRE® Kit dilution buffer (PerkinElmer Catalog #TGRCHK1S50K), were added under subdued light and incubated at room temperature for an addition 120 minutes. The pCHK1 ALPHASCREEN® signal was measured using an ENVISION® plate reader (PerkinElmer). IC50 values were calculated using a four-parameter logistic curve fit using Genedata Screener software. Percent of control for each compound concentration was calculated by the following formula: 100*(Compound−Min)/(Max−Min) where “Max” is the high control, DMSO, and “Min” is the low control, 5 uM ATR inhibitor.

[2] = read-out: ATR/ATRIP Enzyme IC50
[3] = Homo sapiens, HT-29, HT-29 cells
[4] = estimated range, read-out: ATR/ATRIP Enzyme IC50 (estimated class)

Sequence of ATR/ATRIP complex (Q13535 whole entry): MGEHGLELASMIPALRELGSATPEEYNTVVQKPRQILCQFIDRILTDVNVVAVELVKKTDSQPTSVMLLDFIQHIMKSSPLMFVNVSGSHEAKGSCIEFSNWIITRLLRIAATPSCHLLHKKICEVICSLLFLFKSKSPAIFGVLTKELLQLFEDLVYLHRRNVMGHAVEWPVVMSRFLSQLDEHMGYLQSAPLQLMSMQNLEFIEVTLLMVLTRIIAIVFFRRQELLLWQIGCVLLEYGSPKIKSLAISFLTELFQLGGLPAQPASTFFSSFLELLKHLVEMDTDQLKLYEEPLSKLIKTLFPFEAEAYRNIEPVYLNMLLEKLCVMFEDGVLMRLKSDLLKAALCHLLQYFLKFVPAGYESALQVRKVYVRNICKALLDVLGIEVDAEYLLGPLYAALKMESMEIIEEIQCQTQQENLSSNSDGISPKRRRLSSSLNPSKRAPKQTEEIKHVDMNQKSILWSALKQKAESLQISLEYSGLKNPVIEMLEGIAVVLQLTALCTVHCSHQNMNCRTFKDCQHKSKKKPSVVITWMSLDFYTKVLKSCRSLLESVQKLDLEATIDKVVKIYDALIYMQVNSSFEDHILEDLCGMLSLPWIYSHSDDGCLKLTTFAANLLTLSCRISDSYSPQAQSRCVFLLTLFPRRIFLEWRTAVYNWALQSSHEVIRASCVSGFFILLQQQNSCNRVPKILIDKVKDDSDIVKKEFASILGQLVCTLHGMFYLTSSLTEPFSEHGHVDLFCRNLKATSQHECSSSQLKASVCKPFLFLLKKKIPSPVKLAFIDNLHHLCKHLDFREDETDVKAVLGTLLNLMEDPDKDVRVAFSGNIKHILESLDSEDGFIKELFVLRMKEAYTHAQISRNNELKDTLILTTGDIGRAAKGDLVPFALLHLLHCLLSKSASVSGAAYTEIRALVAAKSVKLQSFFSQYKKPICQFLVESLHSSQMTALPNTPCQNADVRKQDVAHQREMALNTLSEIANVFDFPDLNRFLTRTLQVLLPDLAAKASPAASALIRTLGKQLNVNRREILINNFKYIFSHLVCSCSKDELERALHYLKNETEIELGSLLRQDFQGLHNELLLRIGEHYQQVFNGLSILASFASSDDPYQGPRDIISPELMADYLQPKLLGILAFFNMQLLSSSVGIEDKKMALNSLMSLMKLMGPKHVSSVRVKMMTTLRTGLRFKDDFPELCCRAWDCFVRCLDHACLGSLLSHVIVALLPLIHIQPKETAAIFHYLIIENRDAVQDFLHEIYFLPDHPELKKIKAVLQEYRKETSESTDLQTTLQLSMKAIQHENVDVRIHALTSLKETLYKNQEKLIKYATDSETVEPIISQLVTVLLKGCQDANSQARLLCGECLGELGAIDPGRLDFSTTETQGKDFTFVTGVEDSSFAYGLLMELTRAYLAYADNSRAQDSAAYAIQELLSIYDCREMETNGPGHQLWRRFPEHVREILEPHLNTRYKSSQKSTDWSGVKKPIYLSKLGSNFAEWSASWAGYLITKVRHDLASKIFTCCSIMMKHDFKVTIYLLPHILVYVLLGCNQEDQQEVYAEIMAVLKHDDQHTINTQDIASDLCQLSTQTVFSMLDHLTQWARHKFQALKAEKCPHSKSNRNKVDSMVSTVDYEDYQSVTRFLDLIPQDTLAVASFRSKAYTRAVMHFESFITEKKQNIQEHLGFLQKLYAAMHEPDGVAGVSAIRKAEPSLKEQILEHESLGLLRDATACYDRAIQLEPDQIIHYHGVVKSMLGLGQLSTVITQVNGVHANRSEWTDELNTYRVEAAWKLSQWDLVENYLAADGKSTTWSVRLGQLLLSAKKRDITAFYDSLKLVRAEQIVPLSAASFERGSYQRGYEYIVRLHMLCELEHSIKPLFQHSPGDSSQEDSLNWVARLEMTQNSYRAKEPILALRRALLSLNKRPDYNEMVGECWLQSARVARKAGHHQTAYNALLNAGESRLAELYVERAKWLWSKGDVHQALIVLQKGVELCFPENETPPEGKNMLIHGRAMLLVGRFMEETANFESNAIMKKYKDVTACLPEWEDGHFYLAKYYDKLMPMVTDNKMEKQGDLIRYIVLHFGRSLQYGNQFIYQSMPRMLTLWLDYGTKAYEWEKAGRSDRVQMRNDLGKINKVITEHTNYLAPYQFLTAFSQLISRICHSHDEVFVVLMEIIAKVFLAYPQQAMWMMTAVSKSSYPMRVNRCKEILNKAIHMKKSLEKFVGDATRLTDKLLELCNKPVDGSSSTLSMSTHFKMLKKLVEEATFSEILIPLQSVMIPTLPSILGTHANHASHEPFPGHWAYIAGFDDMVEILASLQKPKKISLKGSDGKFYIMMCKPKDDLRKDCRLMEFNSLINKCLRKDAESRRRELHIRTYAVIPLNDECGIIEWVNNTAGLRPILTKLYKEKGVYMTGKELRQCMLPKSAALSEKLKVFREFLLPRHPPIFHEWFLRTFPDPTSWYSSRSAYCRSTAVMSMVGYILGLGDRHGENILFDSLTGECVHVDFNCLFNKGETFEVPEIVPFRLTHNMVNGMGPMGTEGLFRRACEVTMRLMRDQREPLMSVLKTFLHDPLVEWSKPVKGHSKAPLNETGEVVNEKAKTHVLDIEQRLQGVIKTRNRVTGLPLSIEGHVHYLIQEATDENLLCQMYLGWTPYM
Sequence of ATR/ATRIP complex (Q8WXE1 whole entry partner): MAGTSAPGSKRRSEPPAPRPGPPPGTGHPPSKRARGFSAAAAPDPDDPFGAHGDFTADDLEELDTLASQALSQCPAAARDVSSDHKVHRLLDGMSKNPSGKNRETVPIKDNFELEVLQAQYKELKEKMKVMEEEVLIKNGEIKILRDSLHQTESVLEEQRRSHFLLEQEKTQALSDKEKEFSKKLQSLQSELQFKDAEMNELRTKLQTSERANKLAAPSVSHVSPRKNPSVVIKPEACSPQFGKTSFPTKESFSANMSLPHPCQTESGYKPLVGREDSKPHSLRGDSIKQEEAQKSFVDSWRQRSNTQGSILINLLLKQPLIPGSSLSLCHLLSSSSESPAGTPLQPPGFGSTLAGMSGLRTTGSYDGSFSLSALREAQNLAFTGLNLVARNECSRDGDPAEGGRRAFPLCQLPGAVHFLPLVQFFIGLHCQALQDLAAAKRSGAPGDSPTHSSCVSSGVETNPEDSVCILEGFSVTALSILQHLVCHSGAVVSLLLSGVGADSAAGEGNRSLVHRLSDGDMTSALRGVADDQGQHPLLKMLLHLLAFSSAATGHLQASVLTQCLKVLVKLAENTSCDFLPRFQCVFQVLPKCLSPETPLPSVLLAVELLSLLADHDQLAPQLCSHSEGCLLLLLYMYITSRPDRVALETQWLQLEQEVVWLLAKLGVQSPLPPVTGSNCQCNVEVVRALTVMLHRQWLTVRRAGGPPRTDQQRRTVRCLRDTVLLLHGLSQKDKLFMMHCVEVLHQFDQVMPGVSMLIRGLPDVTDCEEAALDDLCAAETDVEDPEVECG

SMILES | IC50 (ATR/ATRIP complex; [2]) | IC50 [1, 3] | IC50 (ATR/ATRIP complex; [4]) | IC50 ([1]; HT-29 cells)
C[C@@H]1Cc2ncnc([C@H]3CCCN(S(C)(=O)=O)C3)c2CN1c1ccnc2[nH]ccc12 [Example 50b, (R)-7-methyl-4-((S)-1-(methylsulfonyl)piperidin-3-yl)-6-(1H-pyrrolo[2,3-b]pyridin-4-yl)-5,6,7,8-tetrahydropyrido[4,3-d]pyrimidine] | 4790 nM | 579 nM | – | –
C[C@@H]1Cc2ncnc([C@@H]3CCN(S(C)(=O)=O)C(C)(C)C3)c2CN1c1ccnc2[nH]ccc12 (single isomer, unassigned) [Example 48a] | 3330 nM | 758 nM | – | –
C[C@@H]1Cc2ncnc(N3CC(NS(=O)(=O)C4CC4)C3)c2CN1c1ccnc2[nH]ccc12 [Example 85, (R)-N-(1-(7-methyl-6-(1H-pyrrolo[2,3-b]-pyridin-4-yl)-5,6,7,8-tetrahydropyrido[4,3-d]-pyrimidin-4-yl)azetidin-3-yl)cyclopropane-sulfonamide] | 113 nM | 83 nM | – | –
C[C@@H]1Cc2ncnc(N3CCS(=O)(=O)CC3)c2CN1c1cc(Cl)nc2[nH]ccc12 [Example 22, 4-[(7R)-6-{6-chloro-1H-pyrrolo[2,3-b]pyridin-4-yl}-7-methyl-5H,6H,7H,8H-pyrido[4,3-d]pyrimidin-4-yl]-1λ^6-thiomorpholine-1,1-dione] | – | 554 nM | 1000 to 10000 nM | –
Cc1cc2c(N3Cc4c(ncnc4C4CCN(S(C)(=O)=O)CC4)C[C@H]3C)ccnc2[nH]1 [Example 94, (R)-7-methyl-6-(2-methyl-1H-pyrrolo[2,3-b]pyridin-4-yl)-4-(1-(methylsulfonyl)piperidin-4-yl)-5,6,7,8-tetrahydro-pyrido[4,3-d]pyrimidine] | 51 nM | 98 nM | – | –
C[C@@H]1Cc2ncnc(C3C[C@H]4CC[C@@H](C3)N4S(C)(=O)=O)c2CN1c1cc(Cl)nc2[nH]ccc12 (single isomer, unassigned) [Example 11b] | 329 nM | – | – | 29 nM
CC1Cc2ncnc(-c3ccc(S(C)(=O)=O)cc3)c2CN1c1ccnc2[nH]ccc12 (stereo not shown) [Example 3, 7-Methyl-4-(4-(methylsulfonyl)phenyl)-6-(1H-pyrrolo[2,3-b]pyridin-4-yl)-5,6,7,8-tetrahydropyrido[4,3-d]pyrimidine bis(trifluoroacetate)] | 1970 nM | 183 nM | – | –
CS(=O)(=O)N1CCC(c2ncnc3c2CN(c2ccnc4[nH]ccc24)[C@H](C(F)F)C3)CC1 [Example 53b] | 2420 nM | – | – | 485 nM
C[C@@H]1Cc2ncnc(N3CC(NS(C)(=O)=O)C3)c2CN1c1ccnc2[nH]ccc12 [Example 84, (R)-N-(1-(7-methyl-6-(1H-pyrrolo[2,3-b]-pyridin-4-yl)-5,6,7,8-tetrahydropyrido[4,3-d]pyrimidin-4-yl)-azetidin-3-yl)-methanesulfonamide] | 722 nM | 79 nM | – | –
C[C@@H]1Cc2ncnc(N3CCCC(C#N)C3)c2CN1c1ccnc2[nH]ccc12 (stereo partly drawn) [Example 83, 1-((R)-7-methyl-6-(1H-pyrrolo[2,3-b]pyridin-4-yl)-5,6,7,8-tetrahydro-pyrido[4,3-d]pyrimidin-4-yl)piperidine-3-carbonitrile] | 364 nM | 56 nM | – | –
C[C@@H]1Cc2ncnc(N3C[C@H]4CC[C@@H](C3)C4NC(=O)CC(F)(F)F)c2CN1c1cc(Cl)nc2[nH]ccc12 (stereo partly drawn) [Example 26, N-{3-[(7R)-6-{6-chloro-1H-pyrrolo[2,3-b]pyridin-4-yl}-7-methyl-5H,6H,7H,8H-pyrido[4,3-d]pyrimidin-4-yl]-3-aza-bicyclo[3.2.1]octan-8-yl}-3,3-trifluoro-propanamide] | – | 88 nM | 1000 to 10000 nM | –
CNC(=O)C1CCN(c2ncnc3c2CN(c2cc(Cl)nc4[nH]ccc24)[C@H](C)C3)CC1 [Example 76, (R)-1-(6-(6-chloro-1H-pyrrolo[2,3-b]pyridin-4-yl)-7-methyl-5,6,7,8-tetrahydropyrido[4,3-d]-pyrimidin-4-yl)-N-methylpiperidine-4-carboxamide] | 708 nM | 61 nM | – | –

More lines, main results first:

IC50 (ATR/ATRIP complex; [2]) | IC50 [1, 3] | IC50 (ATR/ATRIP complex; [4]) | SMILES | IC50 ([1]; HT-29 cells)
184 nM | 50 nM | – | C[C@@H]1Cc2ncnc(N3C[C@H]4CC[C@@H](C3)[C@H]4NS(=O)(=O)C3CC3)c2CN1c1cc(Cl)nc2[nH]ccc12 [Example 78, N-((1R,5S,8R)-3-((R)-6-(6-chloro-1H-pyrrolo[2,3-b]pyridin-4-yl)-7-methyl-5,6,7,8-tetrahydropyrido-[4,3-d]pyrimidin-4-yl)-3-azabicyclo[3.2.1]-octan-8-yl)cyclopropane-sulfonamide] | –
475 nM | 48 nM | – | COC1CCN(c2ncnc3c2CN(c2cc(Cl)nc4[nH]ccc24)[C@H](C)C3)CC1 [Example 68, (R)-6-(6-chloro-1H-pyrrolo[2,3-b]pyridin-4-yl)-4-(4-methoxy-piperidin-1-yl)-7-methyl-5,6,7,8-tetrahydro-pyrido[4,3-d]pyrimidine] | –
246 nM | 38 nM | – | C[C@@H]1Cc2ncnc(N3CC(C#N)C3)c2CN1c1ccnc2[nH]ccc12 [Example 81, (R)-1-(7-methyl-6-(1H-pyrrolo[2,3-b]pyridin-4-yl)-5,6,7,8-tetrahydro-pyrido[4,3-d]pyrimidin-4-yl)azetidine-3-carbonitrile] | –
329 nM | 12 nM | – | C[C@@H]1Cc2ncnc(N3CCC(C(C)(C)O)CC3)c2CN1c1cc(Cl)nc2[nH]ccc12 [Example 30, 2-{1-[(7R)-6-{6-chloro-1H-pyrrolo[2,3-b]pyridin-4-yl}-7-methyl-5H,6H,7H,8H-pyrido[4,3-d]pyrimidin-4-yl]-piperidin-4-yl}propan-2-ol] | –
– | 38 nM | 1000 to 10000 nM | CCC(=O)NC1[C@@H]2CC[C@H]1CN(c1ncnc3c1CN(c1cc(Cl)nc4[nH]ccc14)[C@H](C)C3)C2 (stereo partly drawn) [Example 27, N-[3-[(7R)-6-{6-chloro-1H-pyrrolo[2,3-b]pyridin-4-yl}-7-methyl-5H,6H,7H,8H-pyrido[4,3-d]pyrimidin-4-yl]-3-aza-bicyclo[3.2.1]octan-8-yl}propanamide] | –
